Measured values reported in the supplement of paper PMC10307832.

Tests used:
Assay in all cases: relative viability (nuclei count vs DMSO), 5 days (fraction); higher = more cells survive
[1] = system: A549
Summary of the method: (§1)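 Five library-drug doses in √10 steps were combined with a fixed anchor-drug dose, or a single drug was given alone, by pin tool to lung cancer cell lines in 1536-well plates the day after seeding. Nuclei were stained and counted after 5 days. Relative viability is the nuclei count in treated wells over that in vehicle wells, taken as the median of duplicate plates.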

[2] = system: Calu-6
Summary of the method: as §1

[3] = system: EBC-1
Summary of the method: as §1

[4] = system: HCC-78
Summary of the method: as §1

[5] = system: IA-LM
Summary of the method: as §1

[6] = system: NCI-H1299
Summary of the method: as §1

[7] = system: NCI-H1703
Summary of the method: as §1

[8] = system: NCI-H2009
Summary of the method: as §1

[9] = system: NCI-H460
Summary of the method: as §1

[10] = system: NCI-H661
Summary of the method: as §1

O=c1cc(N2CCOCC2)oc2c(-c3cccc4c3sc3ccccc34)cccc12 + C[C@]1(O)C[C@@H](c2nc(-c3ccc4ccc(-c5ccccc5)nc4c3)c3c(N)nccn32)C1 [Linsitinib] (partner 1 µM) showed a relative viability ([1]; first compound 0.01 µM) of 0.568, a relative viability ([1]; first compound 0.03162 µM) of 0.613 and a relative viability ([1]; first compound 0.1 µM) of 0.577. For the same compound, the relative viability ([1]; first compound 0.3162 µM) was 0.663, the relative viability ([1]; first compound 1 µM) was 0.592 and the relative viability ([2]; first compound 0.01 µM) was 0.963. For the same compound, the relative viability ([2]; first compound 0.03162 µM) was 0.935, the relative viability ([2]; first compound 0.1 µM) was 1.06 and the relative viability ([2]; first compound 0.3162 µM) was 0.944. For the same compound, the relative viability ([2]; first compound 1 µM) was 0.983, the relative viability ([3]; first compound 0.01 µM) was 0.973 and the relative viability ([3]; first compound 0.03162 µM) was 0.942. For the same compound, the relative viability ([3]; first compound 0.1 µM) was 0.835, the relative viability ([3]; first compound 0.3162 µM) was 1.06 and the relative viability ([3]; first compound 1 µM) was 0.993. The relative viability ([4]; first compound 0.01 µM) was 0.542, the relative viability ([4]; first compound 0.03162 µM) was 0.525 and the relative viability ([4]; first compound 0.1 µM) was 0.559. It also gave a relative viability ([4]; first compound 0.3162 µM) of 0.51, a relative viability ([4]; first compound 1 µM) of 0.53 and a relative viability ([5]; first compound 0.01 µM) of 0.667. For the same compound, the relative viability ([5]; first compound 0.03162 µM) was 0.684, the relative viability ([5]; first compound 0.1 µM) was 0.698 and the relative viability ([5]; first compound 0.3162 µM) was 0.506. It also gave a relative viability ([5]; first compound 1 µM) of 0.589, a relative viability ([6]; first compound 0.01 µM) of 0.972 and a relative viability ([6]; first compound 0.03162 µM) of 0.937. For the same compound, the relative viability ([6]; first compound 0.1 µM) was 0.945, the relative viability ([6]; first compound 0.3162 µM) was 1.01 and the relative viability ([6]; first compound 1 µM) was 0.995. For the same compound, the relative viability ([7]; first compound 0.01 µM) was 0.786, the relative viability ([7]; first compound 0.03162 µM) was 0.991 and the relative viability ([7]; first compound 0.1 µM) was 0.684. The relative viability ([7]; first compound 0.3162 µM) was 0.641, the relative viability ([7]; first compound 1 µM) was 0.919 and the relative viability ([8]; first compound 0.01 µM) was 1.16. For the same compound, the relative viability ([8]; first compound 0.03162 µM) was 1.17, the relative viability ([8]; first compound 0.1 µM) was 1.19 and the relative viability ([8]; first compound 0.3162 µM) was 1.17. For the same compound, the relative viability ([8]; first compound 1 µM) was 1.05, the relative viability ([9]; first compound 0.01 µM) was 0.764 and the relative viability ([9]; first compound 0.03162 µM) was 0.708. It also gave a relative viability ([9]; first compound 0.1 µM) of 0.739, a relative viability ([9]; first compound 0.3162 µM) of 0.822 and a relative viability ([9]; first compound 1 µM) of 0.78. For the same compound, the relative viability ([10]; first compound 0.01 µM) was 0.652, the relative viability ([10]; first compound 0.03162 µM) was 0.579 and the relative viability ([10]; first compound 0.1 µM) was 0.571. It also gave a relative viability ([10]; first compound 0.3162 µM) of 0.649 and a relative viability ([10]; first compound 1 µM) of 0.614.

CCN(CC)CCCCNc1ncc2cc(-c3cc(OC)cc(OC)c3)c(NC(=O)NC(C)(C)C)nc2n1 + CC(C)C[C@H](NC(=O)[C@H](Cc1ccccc1)NC(=O)c1cnccn1)B(O)O [Bortezomib] (partner 0.002 µM) gave a relative viability ([2]; first compound 0.01 µM) of 1.01, a relative viability ([2]; first compound 0.03162 µM) of 1.11 and a relative viability ([2]; first compound 0.1 µM) of 1.08. It also gave a relative viability ([2]; first compound 0.3162 µM) of 1.11, a relative viability ([2]; first compound 1 µM) of 0.996 and a relative viability ([3]; first compound 0.01 µM) of 0.554. For the same compound, the relative viability ([3]; first compound 0.03162 µM) was 0.599, the relative viability ([3]; first compound 0.1 µM) was 0.634 and the relative viability ([3]; first compound 0.3162 µM) was 0.565. For the same compound, the relative viability ([3]; first compound 1 µM) was 0.458, the relative viability ([4]; first compound 0.01 µM) was 0.66 and the relative viability ([4]; first compound 0.03162 µM) was 0.487. For the same compound, the relative viability ([4]; first compound 0.1 µM) was 0.395, the relative viability ([4]; first compound 0.3162 µM) was 0.492 and the relative viability ([4]; first compound 1 µM) was 0.464. It also gave a relative viability ([5]; first compound 0.01 µM) of 0.868, a relative viability ([5]; first compound 0.03162 µM) of 0.795 and a relative viability ([5]; first compound 0.1 µM) of 0.977. For the same compound, the relative viability ([5]; first compound 0.3162 µM) was 0.557, the relative viability ([5]; first compound 1 µM) was 0.776 and the relative viability ([6]; first compound 0.01 µM) was 1.11. It also gave a relative viability ([6]; first compound 0.03162 µM) of 1.02, a relative viability ([6]; first compound 0.1 µM) of 1.03 and a relative viability ([6]; first compound 0.3162 µM) of 0.979. The relative viability ([6]; first compound 1 µM) was 0.954, the relative viability ([7]; first compound 0.01 µM) was 0.343 and the relative viability ([7]; first compound 0.1 µM) was 0.364. The relative viability ([7]; first compound 0.3162 µM) was 0.215, the relative viability ([7]; first compound 1 µM) was 0.236 and the relative viability ([8]; first compound 0.01 µM) was 0.958. It also gave a relative viability ([8]; first compound 0.03162 µM) of 1.06, a relative viability ([8]; first compound 0.1 µM) of 1.1 and a relative viability ([8]; first compound 0.3162 µM) of 1.07. The relative viability ([8]; first compound 1 µM) was 0.966, the relative viability ([9]; first compound 0.01 µM) was 1.3 and the relative viability ([9]; first compound 0.03162 µM) was 1.33. For the same compound, the relative viability ([9]; first compound 0.3162 µM) was 1.62, the relative viability ([9]; first compound 1 µM) was 1.04 and the relative viability ([10]; first compound 0.01 µM) was 0.892. For the same compound, the relative viability ([10]; first compound 0.03162 µM) was 0.811, the relative viability ([10]; first compound 0.1 µM) was 0.745 and the relative viability ([10]; first compound 0.3162 µM) was 0.922. For the same compound, the relative viability ([10]; first compound 1 µM) was 0.634.
